Measurements published in ChEMBL document CHEMBL1201862, “PubChem BioAssay data set” (2004).
Activity calls are given as the source filed them.

What was measured:
[1] = molecular target: DNA dC->dU-editing enzyme APOBEC-3A (Homo sapiens, UniProt P31941); experiment: Dose Response confirmation of small molecule APOBEC3A DNA Deaminase Inhibitors via a fluorescence-based single-stranded DNA deaminase assay. [Related pubchem assays (depositor defined):AID493011, AID493024]; type: functional
[2] = molecular target: DNA dC->dU-editing enzyme APOBEC-3G (Homo sapiens, UniProt Q9HC16); type: functional;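 also: Dose-response counterscreen measuring inhibition of APOBEC3G DNA deaminase activity, run while confirming APOBEC3A inhibitors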
DNA dC->dU-editing enzyme APOBEC-3G, sequence (Q9HC16 whole entry): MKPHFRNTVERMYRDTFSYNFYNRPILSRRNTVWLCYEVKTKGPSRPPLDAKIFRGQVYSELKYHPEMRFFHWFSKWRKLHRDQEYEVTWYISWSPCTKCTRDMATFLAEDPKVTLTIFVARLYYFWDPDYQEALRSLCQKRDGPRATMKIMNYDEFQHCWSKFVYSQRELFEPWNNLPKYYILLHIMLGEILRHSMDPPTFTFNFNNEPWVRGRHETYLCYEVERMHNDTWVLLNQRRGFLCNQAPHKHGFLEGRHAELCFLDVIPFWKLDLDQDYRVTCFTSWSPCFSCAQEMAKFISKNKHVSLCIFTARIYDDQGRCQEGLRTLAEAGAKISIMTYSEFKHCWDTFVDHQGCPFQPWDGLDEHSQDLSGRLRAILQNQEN

Beta-galactosidase = Beta-galactosidase (Escherichia coli, UniProt Q8VNN2); experiment: Dose response counterscreen for EBI2 assay utilizing the enzyme, b-galactosidase.; type: functional
Beta-galactosidase, sequence (Q8VNN2 whole entry): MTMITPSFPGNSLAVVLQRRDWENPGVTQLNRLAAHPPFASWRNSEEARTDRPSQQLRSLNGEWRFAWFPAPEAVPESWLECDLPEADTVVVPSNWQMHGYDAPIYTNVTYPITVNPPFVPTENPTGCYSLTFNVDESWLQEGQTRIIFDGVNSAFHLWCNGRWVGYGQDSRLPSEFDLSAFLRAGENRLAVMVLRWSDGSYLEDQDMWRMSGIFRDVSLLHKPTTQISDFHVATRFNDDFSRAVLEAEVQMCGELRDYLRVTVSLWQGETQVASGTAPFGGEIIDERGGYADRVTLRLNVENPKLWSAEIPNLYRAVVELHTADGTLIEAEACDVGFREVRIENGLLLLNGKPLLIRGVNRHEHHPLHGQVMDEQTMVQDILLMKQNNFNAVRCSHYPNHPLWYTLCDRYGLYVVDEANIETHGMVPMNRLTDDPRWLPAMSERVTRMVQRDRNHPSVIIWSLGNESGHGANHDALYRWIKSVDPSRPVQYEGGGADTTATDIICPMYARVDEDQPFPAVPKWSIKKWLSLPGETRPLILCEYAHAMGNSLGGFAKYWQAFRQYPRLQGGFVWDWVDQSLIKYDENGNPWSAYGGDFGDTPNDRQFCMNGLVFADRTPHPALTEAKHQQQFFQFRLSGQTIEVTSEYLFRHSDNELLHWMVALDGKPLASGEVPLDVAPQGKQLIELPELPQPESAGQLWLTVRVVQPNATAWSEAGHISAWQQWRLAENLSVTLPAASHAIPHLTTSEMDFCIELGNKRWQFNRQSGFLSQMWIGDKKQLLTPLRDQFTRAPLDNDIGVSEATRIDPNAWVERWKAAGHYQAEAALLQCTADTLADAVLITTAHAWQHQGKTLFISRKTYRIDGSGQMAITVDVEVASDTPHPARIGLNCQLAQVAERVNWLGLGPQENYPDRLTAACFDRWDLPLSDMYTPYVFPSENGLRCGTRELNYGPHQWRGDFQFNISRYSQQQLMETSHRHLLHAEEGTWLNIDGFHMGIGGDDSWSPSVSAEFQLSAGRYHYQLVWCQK

[3] = NIH3T3 cell viability loss – ATP luminescence, mouse fibroblasts, counter-screen, dose response (AID 2010); type: functional, cell-based;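 also: cells exposed to compound for about 90 hours before reading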
[4] = Trypanosoma cruzi growth suppression in host cells – NIH3T3 host cells, beta-gal luminescence, confirmation (AID 2044); type: functional, cell-based;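 also: intracellular parasites grown in NIH/3T3 mouse fibroblasts as host cells; luminescent beta-galactosidase reporter signal from transgenic T. cruzi replicating inside host cells; inhibitors lower the luminescence signal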
INS1 = experiment: INS-1E survival protection against cytokine death – cell-based, luminescence, retest, dose response (AID 449756); type: functional; conditions: Rattus norvegicus;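 also: cell death triggered by IL-1 beta plus TNF-alpha plus IFN-gamma mixture; protective hits raise ATP signal compared with cytokine alone wells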
[5] = molecular target: T1, DNA repair protein RAD52 homolog (Homo sapiens, UniProt P43351); type: functional, biochemical
T1 sequence (P43351 whole entry): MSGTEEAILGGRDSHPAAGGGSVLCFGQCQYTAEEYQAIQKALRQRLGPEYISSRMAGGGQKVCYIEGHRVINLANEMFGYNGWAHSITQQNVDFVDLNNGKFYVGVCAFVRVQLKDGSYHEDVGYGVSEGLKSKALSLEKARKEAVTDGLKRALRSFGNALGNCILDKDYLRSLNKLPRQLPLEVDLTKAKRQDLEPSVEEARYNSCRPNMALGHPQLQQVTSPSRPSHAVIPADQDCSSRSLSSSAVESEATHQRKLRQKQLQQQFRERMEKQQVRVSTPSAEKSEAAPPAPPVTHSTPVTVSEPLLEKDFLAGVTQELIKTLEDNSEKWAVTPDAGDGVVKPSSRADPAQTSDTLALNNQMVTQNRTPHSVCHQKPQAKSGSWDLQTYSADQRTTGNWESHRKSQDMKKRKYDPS

[6] = HEK-293T viability loss after treatment – luminescence, T-cell screen hits, cytotoxicity control for TCR NF-kB inhibitor project, dose response (AID 489026); type: functional, cell-based;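 also: cells exposed to compound about 14 hours before the viability readout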
[7] = molecular target: T2, Nucleotide-binding oligomerization domain-containing protein 1 (Homo sapiens, UniProt Q9Y239); experiment: blockers of NOD1 pathway activity – revised, SAR follow-up (AID 2333); type: functional
T2 sequence (Q9Y239 whole entry): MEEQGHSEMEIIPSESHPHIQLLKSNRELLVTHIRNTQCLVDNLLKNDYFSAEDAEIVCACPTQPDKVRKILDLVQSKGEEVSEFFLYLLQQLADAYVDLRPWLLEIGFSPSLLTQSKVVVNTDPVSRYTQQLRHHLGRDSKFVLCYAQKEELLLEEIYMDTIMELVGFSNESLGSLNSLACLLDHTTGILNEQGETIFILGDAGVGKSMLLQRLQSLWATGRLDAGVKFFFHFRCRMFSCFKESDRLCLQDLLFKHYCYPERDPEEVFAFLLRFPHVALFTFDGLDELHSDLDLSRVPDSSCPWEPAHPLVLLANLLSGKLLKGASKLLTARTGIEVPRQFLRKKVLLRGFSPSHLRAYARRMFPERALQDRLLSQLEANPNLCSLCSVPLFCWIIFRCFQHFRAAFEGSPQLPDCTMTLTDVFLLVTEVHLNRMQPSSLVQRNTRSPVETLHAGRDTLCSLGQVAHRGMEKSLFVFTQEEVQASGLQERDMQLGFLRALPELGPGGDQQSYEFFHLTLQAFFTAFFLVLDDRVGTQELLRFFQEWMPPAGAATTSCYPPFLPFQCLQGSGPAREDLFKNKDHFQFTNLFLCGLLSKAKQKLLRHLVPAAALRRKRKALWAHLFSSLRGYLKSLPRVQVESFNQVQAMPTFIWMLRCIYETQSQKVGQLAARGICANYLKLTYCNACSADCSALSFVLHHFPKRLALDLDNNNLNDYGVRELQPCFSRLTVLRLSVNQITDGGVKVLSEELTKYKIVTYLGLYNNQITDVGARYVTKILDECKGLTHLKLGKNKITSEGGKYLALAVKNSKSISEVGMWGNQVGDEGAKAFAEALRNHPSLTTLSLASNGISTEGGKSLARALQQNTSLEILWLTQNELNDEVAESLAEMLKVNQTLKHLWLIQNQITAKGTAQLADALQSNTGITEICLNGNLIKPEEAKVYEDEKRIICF

HEK293 = experiment: cells; conditions: Homo sapiens;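 also: cells exposed to compound for 14 hours overnight before viability readout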
Tumor necrosis factor = Tumor necrosis factor (Homo sapiens, UniProt P01375); experiment: analog potency on TNFa NF-kB signaling – cell-based, revised, SAR follow-up (AID 2337); type: functional
Tumor necrosis factor, sequence (P01375 whole entry): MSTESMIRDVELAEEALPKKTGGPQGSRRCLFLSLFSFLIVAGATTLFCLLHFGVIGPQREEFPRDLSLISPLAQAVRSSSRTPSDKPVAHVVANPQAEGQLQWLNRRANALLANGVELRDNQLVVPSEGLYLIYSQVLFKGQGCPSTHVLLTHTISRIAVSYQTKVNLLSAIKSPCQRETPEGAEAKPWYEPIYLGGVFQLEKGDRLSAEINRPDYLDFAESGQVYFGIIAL

Protein skinhead-1 = molecular target: T3, Protein skinhead-1 (Caenorhabditis elegans, UniProt P34707); type: functional
T3 sequence (P34707 whole entry): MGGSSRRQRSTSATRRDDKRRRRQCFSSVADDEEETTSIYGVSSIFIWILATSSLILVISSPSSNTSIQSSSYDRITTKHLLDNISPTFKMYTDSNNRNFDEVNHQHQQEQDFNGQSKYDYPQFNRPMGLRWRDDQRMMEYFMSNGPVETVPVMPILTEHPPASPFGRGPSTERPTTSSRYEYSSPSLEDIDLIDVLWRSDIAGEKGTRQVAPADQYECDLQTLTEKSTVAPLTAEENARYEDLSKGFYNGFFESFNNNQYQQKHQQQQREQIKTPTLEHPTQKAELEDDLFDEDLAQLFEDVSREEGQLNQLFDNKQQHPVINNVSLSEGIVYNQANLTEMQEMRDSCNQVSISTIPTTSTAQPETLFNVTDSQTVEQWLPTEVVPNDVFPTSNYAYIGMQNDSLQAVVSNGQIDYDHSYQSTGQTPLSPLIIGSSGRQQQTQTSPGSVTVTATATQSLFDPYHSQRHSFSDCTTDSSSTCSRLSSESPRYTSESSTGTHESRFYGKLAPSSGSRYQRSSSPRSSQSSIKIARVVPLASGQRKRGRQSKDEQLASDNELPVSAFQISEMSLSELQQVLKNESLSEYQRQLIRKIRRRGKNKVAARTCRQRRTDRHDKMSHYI

[8] = molecular target: T4, Corticotropin-releasing factor receptor 2/Corticotropin-releasing factor-binding protein (Homo sapiens, UniProt P24387+Q13324); experiment: Dose Response confirmation of uHTS hits for small molecule antagonists of the CRF-binding protein and CRF-R2 receptor complex.; type: functional; conditions: read-out: IC50_Mean
T4 sequence (Q13324 whole entry): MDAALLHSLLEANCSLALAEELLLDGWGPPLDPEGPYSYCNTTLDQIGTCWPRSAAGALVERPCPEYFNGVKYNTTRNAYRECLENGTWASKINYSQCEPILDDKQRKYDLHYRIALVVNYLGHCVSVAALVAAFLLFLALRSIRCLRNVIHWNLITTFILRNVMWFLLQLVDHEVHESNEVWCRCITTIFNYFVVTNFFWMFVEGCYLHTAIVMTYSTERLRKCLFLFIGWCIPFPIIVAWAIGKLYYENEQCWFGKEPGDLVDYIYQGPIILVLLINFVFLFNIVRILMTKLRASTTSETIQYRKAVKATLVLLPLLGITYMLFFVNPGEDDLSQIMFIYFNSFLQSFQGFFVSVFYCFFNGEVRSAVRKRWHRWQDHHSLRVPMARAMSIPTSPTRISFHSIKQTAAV
T4 sequence (P24387 whole entry): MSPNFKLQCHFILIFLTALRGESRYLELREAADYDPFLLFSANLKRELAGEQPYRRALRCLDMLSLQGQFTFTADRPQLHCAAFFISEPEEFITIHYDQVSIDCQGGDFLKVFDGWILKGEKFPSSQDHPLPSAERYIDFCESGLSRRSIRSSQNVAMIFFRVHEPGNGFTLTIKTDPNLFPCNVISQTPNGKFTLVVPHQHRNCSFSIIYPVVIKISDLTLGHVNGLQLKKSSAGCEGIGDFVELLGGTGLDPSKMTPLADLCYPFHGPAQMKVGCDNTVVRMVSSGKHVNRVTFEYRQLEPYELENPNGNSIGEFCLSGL

[9] = molecular target: T4, Corticotropin-releasing factor receptor 2/Corticotropin-releasing factor-binding protein; experiment: activators of CRF receptor 2 with binding protein – uHTS hits, confirmation (AID 602473); type: functional; conditions: read-out: EC50_Mean
[10] = toxicity toward HepG2 liver cells – cell-based, plate reader, cherry-pick, antagonist series, cytotoxicity control, dose response (AID 743416); type: functional
[11] = A549 cell cytotoxicity, dose response, cytotoxicity control, plate reader, cherry-pick, antagonist series (AID 743412); type: functional, cell-based

DNA dC->dU-editing enzyme APOBEC-3A, sequence (P31941 whole entry): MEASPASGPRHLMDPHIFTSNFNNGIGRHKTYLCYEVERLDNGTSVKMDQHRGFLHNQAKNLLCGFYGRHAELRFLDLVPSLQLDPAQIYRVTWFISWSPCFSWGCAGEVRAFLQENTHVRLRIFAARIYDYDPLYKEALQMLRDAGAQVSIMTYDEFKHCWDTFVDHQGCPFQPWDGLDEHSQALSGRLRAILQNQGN

With `CN(Cc1ccccc1)C(=O)c1ncn(C)c1C(=O)N(C)Cc1ccccc1` the IC50 [1] was 3.15 µM (active) and the IC50 [2] was > 100 µM (inactive).

In the case of `Cc1sc2nc(C3CC3)nc(N3CCN(C(=O)c4ccc(Cl)cc4)CC3)c2c1C`, the IC50 (Beta-galactosidase) is reported as > 80 µM (inactive).

In the case of `CC1(C)CC(N2CCN(c3ccccc3)CC2)=CC(=[N+]2CCCC2)C1`, the EC50 [3] is reported as > 60 µM (not active), the IC50 [1] is reported as 2.15 µM (active) and the IC50 [2] is reported as 2.24 µM (active). The EC50 [4] was 0.263 µM (active) and the AC50 (INS1) was 1.81 µM (active).

With `Cn1c(C(=O)NCCCN2CCCCCC2)cc2c(=O)n(C)c3ccccc3c21` the AC50 [5] was 12.4 µM (active).

With `CC(=O)c1ccc(N2CCN(S(=O)(=O)c3ccc4c(c3)CC(C)N4C(=O)C3CC3)CC2)cc1` (stereo unspecified) the IC50 [6] was > 80 µM (inactive), the IC50 [7] was 8.77 µM (active) and the IC50 (HEK293) was > 20 µM (inactive). The IC50 (Tumor necrosis factor) was 3.18 µM (active).

For `COc1ccc2[nH]c(=O)c(CN(C(=O)c3ccco3)C(C)C)cc2c1`, the IC50 [1] was 6.26 µM (active) and the IC50 [2] was 6.32 µM (active).

For `Cc1ccc(/C=C2/SC(Nc3ccc(F)cc3)=NC2=O)s1`, the IC50 (Protein skinhead-1) was > 100 µM (inactive), the IC50 [1] was 3.22 µM (active) and the IC50 [2] was 7.58 µM (active).

With `CCN1C(NCCOC)=N[C@@H](c2ccccc2)[C@H](C(=O)OC)[C@H]1C` the IC50 [1] was 4.47 µM (active) and the IC50 [2] was 4.28 µM (active).

With `CCOC(=O)N1CCN(C(=O)c2cc3c(O)nc4ccccc4c3s2)CC1` the IC50 (Beta-galactosidase) was > 80 µM (inactive).

For `CCc1ccc(CN(C)C(=O)c2cc(=O)c3ccccc3o2)cc1`, the IC50 (Beta-galactosidase) was > 80 µM (inactive).

With `O=C(COc1ccc2ccccc2c1)N1CCN(C(=O)c2ccc([N+](=O)[O-])cc2)CC1` the IC50 (Beta-galactosidase) was > 80 µM (inactive), the IC50 [8] was > 47.1 µM (inactive) and the EC50 [9] was > 53 µM (inactive).

With `CC(=O)Nc1ccc(CNc2nc(NCCN(C)C)nc3cc(-c4ccccc4)sc23)cc1` the AC50 [5] was 1.37 µM (active).

In the case of `Cc1ccc(NC(=O)c2ncn(CC(=O)N3CCN(c4ccccn4)CC3)n2)cc1C`, the AC50 [10] is reported as > 52 µM (inactive) and the AC50 [11] is reported as > 52 µM (inactive).

For `CCOC(=O)N(C)c1c(CC)nc2c(OCc3ccc(Cl)cc3Cl)cccn12`, the IC50 (Beta-galactosidase) was 121 µM (inactive).

With `CC(=O)Nc1ccc(Nc2cc(C)nc(Nc3ccc(NC(C)=O)cc3)n2)cc1` the IC50 [1] was 11 µM (active) and the IC50 [2] was 16.4 µM (active).
